Source: patent US4587045A, “Intermediates for preparing octapeptide vasopressin antagonists” (SmithKline Beckman Corporation, priority 1985, dated 1986)
Values belong to the molecule of their own block, whether it stands above or below them. *1 amine or outer side, *2 acyl side, *3 side chain or, on linkers, in order; H or OH if unused. Where a SMILES comes first, the peptide text is derived from it. Bridges are numbered along the chain shown (N, C = ends). Where no end group is shown, it is not given here. [ ]: non-standard residue; d: D form. The star is where a group is joined. X1 = O=C(CC1(S[*:2])CCCCC1)[*:1]; Abu = CC[C@H](N)C(=O)O; NHPr = CCCN*

Columns and labels:
[1] = target: T1, vasopressin receptors (V2 -receptors) (Rattus norvegicus, UniProt Q00788); assay: Hydropenic rat protocol (anti-ADH activity in vivo); conditions: estimated dose of peptide delivered ip which reduces Uosm from hydropenic levels to 300 mOsmoles/kg H2O
T1 construct: in vivo, in the hydropenic rat or the hydropenic monkey; from tissue; host or cells: whole animal (male hydropenic rat); renal receptors in situ
Experimental: (§1) Details of the in vitro protocols are in F. L. Stassen et al., J. of Pharm. Exp. Ther. 233, 50-54 (1982) but the calculations of cyclase activity and binding potential at the receptor site are as follows:
Food and water are removed from male rats approximately 18 hours prior to testing. Animals are housed 4 per metabolism cage. At 0 hour, the test compound is administered intraperitoneally to the test group and an equivalent volume of vehicle is administered to both control groups (fasted and non-fasted). Urine volume and osmolality are measured every hour for 4 hours. Test values are recorded as ml of urine excreted (cumulative), mEq/rat electrolyte excreted, mg/rat urea excreted, and osmolality in milli-Osmoles/kg H2 O. A […] is used to determine significance. ED300 is defined as the dose of compound (μg/kg) required to lower urine osmolality to 300 m-Osmoles/kg. ED500 is defined as the dose of compound (μg/kg) required to lower urine osmolality to 500 m-Osmoles/kg. The hydropenic monkey protocol is similar.

[2] = target: vasopressin stimulated adenylate cyclase activity; assay: Assay of adenylate cyclase activity, kidney medullary membrane; format: biochemical; conditions: pig kidney medullary membrane, read-out: anti-ADH activity in vitro (Pig) Ki
Experimental: as §1
Test Procedure for Assay of Adenylate Cyclase Activity:
In each experiment the amount of ^32 P/cAMP formed in the absence of medullary membrane is determined (blank). The blank value is subtracted from all experimental data. The compound is tested for its effect on basal adenylate cyclase activity and/or on vasopressin stimulated activity. Each determination is carried out in triplicate. The Ka value is derived from a Lineweaver-Burke plot. Rel. Vmax =(Vmax drug/Vmax vasopressin)×100. Ki =I/[(Ka'/Ka)-1] where I is the concentration of the antagonist, and Ka' and Ka are the concentrations of vasopressin required to give half-maximal activity of adenylate cyclase in the presence and absence of antagonist, respectively.

[3] = target: T2, vasopressin receptors (^3 H-vasopressin binding) (Sus scrofa, UniProt P32307); assay: Binding assay, ^3 H-vasopressin, hog kidney membranes; design: species or system Pig; conditions: for Kb: KB = IC50/(1+L/KD), ^3 H-vasopressin binding, hog kidney membranes, read-out: anti-ADH activity in vitro (Pig) KB
T2 construct: average KD value determined on 3 preparations of hog kidney membranes; from tissue; host or cells: hog kidney medullary membranes
Experimental: as §1
Test Procedure for Binding Assay:
In each experiment, the amount of ^3 H-vasopressin bound in the absence and in the presence of an excess of vasopressin (7.5×10^-6 M) is measured in triplicate. These values represent total and non-specific binding, respectively. The KB of a compound is derived from the equation for competitive inhibition: KB =IC50 /(1+L/KD), where IC50 is the concentration required for 50% inhibition of specific ^3 H-vasopressin binding, L is the concentration of the ligand, and KD is the dissociation constant of ^3 H-vasopressin (KD =3.6×10^-9 M; 1 SD=0.4×10^-9 M). This is the average KD value determined on 3 preparations of hog kidney membranes.

[4] = test system: vasopressin receptors (V2 -receptors); assay: Conscious hydropenic squirrel monkey test (anti-ADH activity); format: in vivo
Experimental: Food and water are removed from male rats approximately 18 hours prior to testing. Animals are housed 4 per metabolism cage. At 0 hour, the test compound is administered intraperitoneally to the test group and an equivalent volume of vehicle is administered to both control groups (fasted and non-fasted). Urine volume and osmolality are measured every hour for 4 hours. Test values are recorded as ml of urine excreted (cumulative), mEq/rat electrolyte excreted, mg/rat urea excreted, and osmolality in milli-Osmoles/kg H2 O. A tolerance test is used to determine significance. […] The hydropenic monkey protocol is similar.

[5] = target: vascular pressor sites (V1 -receptors) (Rattus norvegicus, UniProt P30560)
From the text: The second group of vasopressin receptor sites are the vascular pressor sites (V1 -receptors) located within the cardiovascular system itself.

[6] = reported by Barth; cited from earlier work
[7] = reported by Barth; cited from earlier work; remark: listed apart in the source
[8] = compared with the respective parent compound; cited from earlier work
[9] = agonist series; cited from earlier work

T2 sequence (P32307 whole entry): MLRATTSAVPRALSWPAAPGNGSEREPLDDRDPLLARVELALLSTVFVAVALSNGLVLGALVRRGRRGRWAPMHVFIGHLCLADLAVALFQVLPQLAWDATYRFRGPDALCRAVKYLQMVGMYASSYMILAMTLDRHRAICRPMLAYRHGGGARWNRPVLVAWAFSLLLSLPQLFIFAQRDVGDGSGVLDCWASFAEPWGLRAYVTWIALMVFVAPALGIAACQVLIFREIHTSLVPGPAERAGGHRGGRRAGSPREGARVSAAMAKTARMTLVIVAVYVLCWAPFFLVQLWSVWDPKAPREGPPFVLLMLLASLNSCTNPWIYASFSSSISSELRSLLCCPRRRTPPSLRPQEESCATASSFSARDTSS
vascular pressor sites (V1 -receptors), sequence (P30560 whole entry): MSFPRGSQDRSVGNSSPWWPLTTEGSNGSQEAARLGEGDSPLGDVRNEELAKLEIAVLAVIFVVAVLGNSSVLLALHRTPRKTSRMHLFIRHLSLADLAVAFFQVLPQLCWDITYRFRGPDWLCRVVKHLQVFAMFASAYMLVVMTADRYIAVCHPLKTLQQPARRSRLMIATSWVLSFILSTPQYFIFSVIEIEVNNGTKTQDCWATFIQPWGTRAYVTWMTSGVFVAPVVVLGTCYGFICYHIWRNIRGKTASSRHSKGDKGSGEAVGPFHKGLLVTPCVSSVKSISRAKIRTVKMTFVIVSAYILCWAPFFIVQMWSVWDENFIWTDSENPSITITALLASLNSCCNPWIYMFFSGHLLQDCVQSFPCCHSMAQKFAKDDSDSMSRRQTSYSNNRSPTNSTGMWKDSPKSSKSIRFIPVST
T1 sequence (Q00788 whole entry): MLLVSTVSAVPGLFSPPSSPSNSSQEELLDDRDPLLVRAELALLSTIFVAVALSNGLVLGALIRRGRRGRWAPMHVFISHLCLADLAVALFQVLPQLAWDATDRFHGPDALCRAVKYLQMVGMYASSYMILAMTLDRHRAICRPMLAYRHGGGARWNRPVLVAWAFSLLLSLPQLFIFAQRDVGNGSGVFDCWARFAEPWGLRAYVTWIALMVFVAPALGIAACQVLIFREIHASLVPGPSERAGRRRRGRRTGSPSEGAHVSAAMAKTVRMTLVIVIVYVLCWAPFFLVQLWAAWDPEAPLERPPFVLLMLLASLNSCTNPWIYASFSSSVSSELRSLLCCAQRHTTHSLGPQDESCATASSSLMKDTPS

Molecule: CC(C)[C@@H]1NC(=O)[C@H](Cc2ccccc2)NC(=O)[C@@H](Cc2ccc(O)cc2)NC(=O)CC2(CCCCC2)SSC[C@@H](C(=O)N2CCC[C@H]2C(=O)N[C@@H](CCCNC(=N)N)C(=O)NCC(N)=O)NC(=O)[C@H](CC(N)=O)NC1=O [Compound 1] ([dY]FVNCPRG-NH2; linker N-5 via X1)
anti-ADH activity in vivo (Rat) ED300 [1]: 0.032 mg/kg
Ki [2]: 30 nM

Molecule: CC(C)[C@@H]1NC(=O)[C@H](Cc2ccccc2)NC(=O)[C@@H](Cc2ccc(O)cc2)NC(=O)CC2(CCCCC2)SSC[C@@H](C(=O)N2CCC[C@H]2C(=O)N[C@@H](CCCNC(=N)N)C(N)=O)NC(=O)[C@H](CC(N)=O)NC1=O [Compound 2, [1-(β-mercapto-β,β-cyclopentamethylenepropionic acid)-2-D-tyrosine-4-valine-8-arginine-9-desglycine]vasopressin] ([dY]FVNCPR-NH2; linker N-5 via X1)
Kb [3]: 65 nM

Molecule: CC(C)[C@@H]1NC(=O)[C@H](Cc2ccccc2)NC(=O)[C@@H](Cc2ccc(O)cc2)NC(=O)CC2(CCCCC2)SSC[C@@H](C(=O)N2CCC[C@H]2C(=O)N[C@@H](CCCNC(=N)N)C(=O)O)NC(=O)[C@H](CC(N)=O)NC1=O [Compound 3, [1-(β-mercapto-β,β-cyclopentamethylenepropionic acid)-2-D-tyrosine-4-valine-8-arginine-9-desglycinamide]vasopressin] ([dY]FVNCPR-OH; linker N-5 via X1)
Kb [3]: 350 nM

Molecule: CCOc1ccc(C[C@H]2NC(=O)CC3(CCCCC3)SSC[C@@H](C(=O)N3CCC[C@H]3C(=O)N[C@@H](CCCNC(=N)N)C(=O)NCC(N)=O)NC(=O)[C@H](CC(N)=O)NC(=O)[C@H](C(C)C)NC(=O)[C@H](Cc3ccccc3)NC2=O)cc1 [Compound 4] ([dY](Et)FVNCPRG-NH2; linker N-5 via X1)
ED300, dose required to decrease urine osmolality to 300M Osm/kg water [4]: 33.1 nmol/kg
anti-ADH activity in vivo (Rat) ED300 [1]: 0.0099 mg/kg
Ki [2]: 5.9 nM

Molecule: CCOc1ccc(C[C@H]2NC(=O)CC3(CCCCC3)SSC[C@@H](C(=O)N3CCC[C@H]3C(=O)N[C@@H](CCCNC(=N)N)C(N)=O)NC(=O)[C@H](CC(N)=O)NC(=O)[C@H](C(C)C)NC(=O)[C@H](Cc3ccccc3)NC2=O)cc1 [Compound 5, [1-(β-mercapto-β,β-cyclopentamethylenepropionicacid)-2-(O-ethyl-D-tyrosine)-4-valine-8-arginine-9-desglycine]vasopressin] ([dY](Et)FVNCPR-NH2; linker N-5 via X1)
Kb [5]: 3.98 nM
pA2, inhibition of vasopressin-induced vasoconstriction ([5]; in vivo): 7.71
Kb [3]: 7.8 nM

Kb [3]: 18 nM
Molecule: CCOc1ccc(C[C@H]2NC(=O)CC3(CCCCC3)SSC[C@@H](C(=O)N3CCC[C@H]3C(=O)N[C@@H](CCCNC(=N)N)C(N)=O)NC(=O)[C@H](CC(N)=O)NC(=O)[C@H](CC)NC(=O)[C@H](Cc3ccccc3)NC2=O)cc1 [Compound 6] ([dY](Et)F[Abu]NCPR-NH2; linker N-5 via X1)

Molecule: CCCNC(=O)[C@H](CCCNC(=N)N)NC(=O)[C@@H]1CCCN1C(=O)[C@@H]1CSSC2(CCCCC2)CC(=O)N[C@H](CC(C)C)C(=O)N[C@@H](Cc2ccccc2)C(=O)N[C@@H](C(C)C)C(=O)N[C@@H](CC(N)=O)C(=O)N1 [Example 4] ([dL]FVNCPR-NHPr; linker N-5 via X1)
inhibition at 10 µM ([3]; at 10^-5 M, read-out: Kbind, inhibition): 12.1%

Molecule: des-glycinamide^9 -vasopressin
CNS activity [6]: has CNS activity
antidiuretic or uterotonic activity [7]: practically no
activity of the parent compound retained [8]: little

Molecule: des-lysine^8 -desglycinamide^9 -vasopressin
activity of the parent compound retained [8]: little

Molecule: desglycine^9 -oxytocin (CYIQNCPL; disulfide 1-6 (inferred); ends not checked; UniProt P01178 20-28, looked up, variant G9*) [literature agonist analog, B. Berde et al]
effect on blood pressure compared with oxytocin [9]: opposite effect
activity of the parent compound retained [8]: little
